Assay results from patent US20250188110A1, “SPECIFIC SMALL MOLECULE INHIBITORS THAT BLOCK KMT9 METHYLTRANSFERASE ACTIVITY AND FUNCTION” (ALBERT-LUDWIGS-UNIVERSITÄT FREIBURG, priority 2021, published 2025).

How the values were obtained:
[1] = biological target: T1, KMT9 (Homo sapiens, UniProt Q9Y5N5); assay: Microscale thermophoresis (MST) KMT9 binding; details: microscale thermophoresis, His-tag labelled KMT9 (20 nM); read-out: MST
T1 sequence (Q9Y5N5 1-214): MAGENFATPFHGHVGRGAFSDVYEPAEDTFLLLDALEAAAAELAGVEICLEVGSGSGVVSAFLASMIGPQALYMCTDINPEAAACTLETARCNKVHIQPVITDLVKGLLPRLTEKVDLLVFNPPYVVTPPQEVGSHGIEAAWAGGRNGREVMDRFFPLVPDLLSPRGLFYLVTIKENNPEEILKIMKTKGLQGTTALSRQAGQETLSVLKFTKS
T1 sequence (Q9UI30 1-120 isoform Q9UI30-2 partner): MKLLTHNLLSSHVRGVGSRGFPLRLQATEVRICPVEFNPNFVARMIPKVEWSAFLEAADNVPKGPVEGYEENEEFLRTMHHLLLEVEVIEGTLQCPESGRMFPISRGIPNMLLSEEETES
Description: To determine the binding affinity of the compounds according to the present invention and KMT9, microscale thermophoresis (MST) analysis was performed with a NanoTemper Monolith NT.115 instrument (NanoTemper Technologies GmbH). KMT9 was labelled with a RED-Tris-NTA labelling kit (NanoTemper Technologies GmbH) based on the manufacturer's instructions. Buffer including 25 mM HEPES (pH 7.5), 100 mM NaCl, 1 mM DTT and 0.05% Tween was used for the reaction buffer. Varying concentrations of the tested compounds of formula (I) as indicated in Table 1 were titrated against His-tag labelled KMT9 proteins (20 nM). Samples were loaded into standard Capillaries (NanoTemper Technologies GmbH) and MST measurements were performed using 40% MST power and 100% LED power. For each set of binding experiments, MST measurement was carried out with Binding Affinity module in MO.Control program under Nano-RED Excitation. Datasets were processed with the MO.Affinity Analysis software (NanoTemper Technologies GmbH).
For the results of the microscale thermophoresis (MST) assay shown as “MST” in Table 1, “A” represents a Kd of equal to or less than 10 nM (Kd≤10 nM); “B” represents a Kd of greater than 10 nM and equal to or less than 100 nM (10 nM<Kd<100 nM); “C” represents a Kd of greater than 100 nM and equal to or less than 1000 nM (100 nM<Kd ≤ 1000 nM); “D” represents a Kd of greater than 1000 nM (1000 nM<Kd).

[2] = biological target: T1, KMT9; assay: KMT9 methyltransferase inhibition assay, 3H-SAM scintillation (entries 1-154); assay type: biochemical; details: entries 1-154: 3H-SAM assay, 25 nM KMT9, 5 μM ETF1
Description: The assay was carried out in 0.5 mL Eppendorf tubes in duplicates. Assay buffer consisted of 50 mM BTP, 1 mM MgCl2, 1 mM DTT and 0.01% Triton-X^100 at a pH of 8.5 (adjusted using 1 M HCl and 1 M NaOH). 20X inhibitor stock (in DMSO), 2X enzyme stock and 4X substrate mix (both in assay buffer) were prepared. The substrate mix consisted of Tritium-labelled S-adenosylmethionine (3H-SAM), S-adenosylmethionine (SAM) and eukaryotic peptide chain release factor subunit1 (Homo sapiens, residues 140-275)(ETF1). Final assay concentrations were set to 25 nM KMT9, 0.3 μM 3H-SAM, 0.7 µM SAM and 5 μM ETF1. […] 5 μL of 4x substrate mix was added to initiate the reaction. The final reaction volume was 20 μL. For the positive control, the compound of formula (I) was replaced by DMSO; for the negative control, the compound of formula (I) was replaced by DMSO and KMT9 was replaced by assay buffer. The reaction mix was incubated in an Eppendorf thermomixer comfort at 30° C. for 2 h, shaking at 300 rpm. The reaction was quenched using 5 μL 50% trichloroacetic acid (TCA) and incubated at 25° C. for 5 minutes. 22 μL of the mixture was transferred into 96-well MultiScreen@HTS FB filter plates (Merck KGaA, Darmstadt, Germany) and washed four times with 10% TCA and two times with 100% ethanol. The plate was dried overnight, the filters were transferred into individual 6 mL Pony Vials (Perkin Elmer Inc, Waltham, MA, USA) and incubated in 3 mL of Ultima Gold scintillation cocktail (Perkin Elmer Inc, Waltham, MA, USA) for 30 minutes. The scintillation signal was measured for 3x 1 min using TriCarb 2910 TR (Perkin Elmer) scintillation counter in 3H CPM mode (LL: 0, UL: 18.6). Inhibition was calculated using the following formula: […]
With xc: signal of compound, Xpos: mean signal of positive control, Xneg: mean signal of negative control. Data fitting was carried out by GraphPad 7.0 using nonlinear fit ([Inhibitor]vs. response-variable slope (four parameters)).
For the results of the methyltransferase inhibition assay shown as “Inhibition” in Table 1, “I” represents an IC50 less than 0.1 μM, “II” represents an IC50 equal or higher than 0.1 μM and less than 1 μM, “III” represents an IC50 equal or higher than 1 µM and less than 10 µM and “IV” represents an IC50 equal or higher than 10 µM

[3] = biological target: T1, KMT9; assay: KMT9 thermal shift assay (SyproOrange); assay type: binding; details: ΔTm; 500 µM compound, 2 μM KMT9, 5X SO; read-out: Thermal shift
Description: The assay was carried out in 96-well Hard-Shell PCR plates (Bio-Rad Laboratories Inc.). Assay buffer consisted of 50 mM BTP, 1 mM MgCl2 and 1 mM DTT at a pH of 8.5 (adjusted using 1 M HCl and 1 M NaOH). 20X inhibitor stock (in DMSO), 2X enzyme stock and 4X SyproOrange (SO) stock (both in assay buffer) were prepared. 1 μL of 20X compound, 4 μL of assay buffer, 10 μL of 2X KMT9 and 5 μL of 4X SO were pipetted. For the no-compound control, 20X inhibitor stock was replaced by DMSO. The final volume was 20 μL. The plate was spun down at 700 rpm for 1 min using a Hettich UNIVERSAL 320 centrifuge and incubated at 25° C., shaking at 600 rpm. After incubation, the plate was spun down for 1 min at 700 rpm and measurement was conducted using a CFX96 Touch Real-Time PCR Detection System (Bio-Rad Laboratories Inc.). The plate was equilibrated at 20° C. for 4 min and then heated stepwise at a rate of 1° C. per 15 s until 95° C. After every step, fluorescence was measured in FRET mode. Calculation of melting points was conducted by a Boltzman sigmoidal model using GraphPad Prism 7.0.
For the results of the thermal shift assay shown as “Thermal shift” in Table 1, “++++” represents a ΔTm of greater 20 K, “+++” represents a ΔTm of greater than 15 K and less than or equal to 20 K (15 K<ΔTm≤20 K); “++” represents a ΔTm of greater than 10 K and less than or equal to 15 K (10 K<ΔTm ≤ 15 K); “+” represents a ΔTm of equal to or less than 10 K (ΔTm≤10 K).

Kd [1]	IC50 [2]	ΔTm at 500 µM [3]	SMILES
10 to 100 nM	100 to 1000 nM	15 to 20 °C	Nc1ncnc2c1c(Br)cn2[C@@H]1C[C@H](CNCCCNCCc2ccc(F)cc2F)[C@@H](O)[C@H]1O [334 (238), (1R,2S,3R,5R)-3-(4-amino-5-bromo-7H-pyrrolo[2,3-d]pyrimidin-7-yl)-5-(((3-((2,4-difluorophenethyl)amino)propyl)amino)methyl) cyclopentane-1,2-diol]
100 to 1000 nM	100 to 1000 nM	15 to 20 °C	Nc1ncnc2c1c(Br)cn2[C@@H]1C[C@H](CNCCCNCCc2ccc(C(F)(F)F)cc2)[C@@H](O)[C@H]1O [336 (240), (1R,2S,3R,5R)-3-(4-amino-5-bromo-7H-pyrrolo[2,3-d]pyrimidin-7-yl)-5-(((3-((4-(trifluoromethyl)phenethyl)amino)propyl)amino)methyl) cyclopentane-1,2-diol]
10 to 100 nM	100 to 1000 nM	15 to 20 °C	Nc1ncnc2c1c(Br)cn2[C@@H]1C[C@H](CNCCCNCCc2ccccc2F)[C@@H](O)[C@H]1O [338 (242), (1R,2S,3R,5R)-3-(4-amino-5-bromo-7H-pyrrolo[2,3-d]pyrimidin-7-yl)-5-(((3-((2-fluorophenethyl)amino)propyl)amino)methyl) cyclopentane-1,2-diol]
100 to 1000 nM	100 to 1000 nM	15 to 20 °C	Nc1ncnc2c1c(I)cn2[C@@H]1C[C@H](CNCCCNCCc2ccccc2)[C@@H](O)[C@H]1O [343 (246)]
100 to 1000 nM	100 to 1000 nM	15 to 20 °C	Nc1ncnc2c1c(Br)cn2[C@@H]1C[C@H](CNCCCNCc2ccc(F)cc2)[C@@H](O)[C@H]1O [344 (248), (1R,2s,3R,5R)-3-(4-amino-5-bromo-7H-pyrrolo[2,3-d]pyrimidin-7-yl)-5-(((3-((4-fluorobenzyl)amino)propyl)amino)methyl) cyclopentane-1,2-diol]
> 1000 nM	> 10000 nM	≤ 10 °C	CNc1ncnc2c1ccn2[C@@H]1C[C@H](C(=O)NCC2CCNCC2)[C@@H](O)[C@H]1O [346 (250), (1S,2R,3S,4R)-2,3-dihydroxy-4-(4-(methylamino)-7H-pyrrolo[2,3-d]pyrimidin-7-yl)-N-(piperidin-4-ylmethyl) cyclopentane-1-carboxamide]
> 1000 nM	> 10000 nM	≤ 10 °C	CNc1ncnc2c1ccn2[C@@H]1C[C@H](C(=O)NCC2CCCNC2)[C@@H](O)[C@H]1O (stereo partly drawn) [348 (252), (1S,2R,3S,4R)-2,3-dihydroxy-4-(4-(methylamino)-7H-pyrrolo[2,3-d]pyrimidin-7-yl)-N-(piperidin-3-ylmethyl) cyclopentane-1-carboxamide]

The next lines start with the compound.

SMILES	Kd [1]	IC50 [2]	ΔTm at 500 µM [3]
Nc1ncnc2c1ncn2[C@@H]1O[C@H](CNCCCNCc2ccc(OCc3ccccc3)cc2)[C@@H](O)[C@H]1O [321 (224), (2R,3R,4S,5R)-2-(6-amino-9H-purin-9-yl)-5-(((3-((4-(benzyloxy)benzyl)amino)propyl)amino)methyl)tetrahydrofuran-3 4-diol]	100 to 1000 nM	> 10000 nM	≤ 10 °C
Nc1ncnc2c1ncn2[C@@H]1O[C@H](CNCCCNCc2ccc3ccccc3c2)[C@@H](O)[C@H]1O [323 (226), (2R,3R,45,5R)-2-(6-amino-9H-purin-9-yl)-5-(((3-((naphthalen-2-ylmethyl)amino)propyl)amino)methyl)tetrahydrofuran-3,4-diol]	> 1000 nM	> 10000 nM	≤ 10 °C
Nc1ncnc2c1ncn2[C@@H]1O[C@H](C(=O)NC2CCN(CCc3ccccc3)CC2)[C@@H](O)[C@H]1O [325 (228), (2S,3S,4R,5R)-5-(6-amino-9H-purin-9-yl)-3,4-dihydroxy-N-(1-phenethylpiperidin-4-yl) tetrahydrofuran-2-carboxamide]	> 1000 nM	> 10000 nM	≤ 10 °C
CNc1ncnc2c1ccn2[C@@H]1C[C@H](Cn2ccnc2CCCNCCc2cccc(Oc3ccccc3)c2)[C@@H](O)[C@H]1O [326 (229), (1R,2S,3R,5R)-3-(4-(methylamino)-7H-pyrrolo[2,3-d]pyrimidin-7-yl)-5-((2-(3-((3-phenoxyphenethyl)amino)propyl)-1H-imidazol-1-yl)methyl) cyclopentane-1,2-diol]	> 1000 nM	> 10000 nM	≤ 10 °C
CNc1ncnc2c1ccn2[C@@H]1C[C@H](CNCCCNCc2ccc(OCc3ccccc3)cc2)[C@@H](O)[C@H]1O [328 (232), (1S,2R,3R,5R)-3-(((3-((4-(benzyloxy)benzyl)amino)propyl)amino)methyl)-5-(4-(methylamino)-7H-pyrrolo[2,3-d]pyrimidin-7-yl) cyclopentane-1,2-diol]	> 1000 nM	> 10000 nM	≤ 10 °C
CNc1ncnc2c1ccn2[C@@H]1C[C@H](CN(CCCNCCc2ccccc2)CC(F)(F)F)[C@@H](O)[C@H]1O [330 (234), (1R,2S,3R,5R)-3-(4-(methylamino)-7H-pyrrolo[2,3-d]pyrimidin-7-yl)-5-(((3-(phenethylamino)propyl)(2,2,2-trifluoroethyl)amino)methyl) cyclopentane-1,2-diol]	100 to 1000 nM	> 10000 nM	≤ 10 °C
CNc1ncnc2c1ccn2[C@@H]1C[C@H](CNCCCNCc2ccc(Oc3ccccc3)cc2)[C@@H](O)[C@H]1O [332 (236), (1R,2S,3R,5R)-3-(4-(methylamino)-7H-pyrrolo[2,3-d]pyrimidin-7-yl)-5-(((3-((4-phenoxybenzyl)amino)propyl)amino)methyl) cyclopentane-1,2-diol]	> 1000 nM	> 10000 nM	≤ 10 °C
